Results on one compound are retold here after patent publication US10201532B2, “Compounds and their use” (ALLECRA THERAPEUTICS GMBH, priority 2010, dated 2019).

Assay [1] relates to KPC-2 producing K. pneumoniae (ATCC BAA-1705). Put plainly: Synergistic broth micro-dilution MIC (checkerboard). The format is cell-based, Klebsiella pneumoniae. Conditions: Klebsiella pneumoniae, ATCCBAA1705, no BLI; ATCC BAA-1705; read-out: MIC of antibiotic alone (no BLI). A general note: Broth dilution looks for growth in wells or tubes with falling amounts of substance.
Assay [2] deals with K. pneumoniae ATCC 700603 (SHV18). Put plainly: Disk zone of inhibition, antibiotic + Compound-1 on same disk (Methodology 2). Format: cell-based, Klebsiella pneumoniae. The settings on record: CAZ 30 μg or IPM 10 μg disk alone. From the text:
(§1) In this experiment, Compound-1 is used as a diagnostic reagent for the detection of β-lactamases belonging to the families KPC & ESBL (e.g., SHV18) producing Enterobacteriaceae. A simple set of absorbent paper disks impregnated with antibiotic on agar medium is used for the detection.
(§2) • 0.5 McFarland of the test organism was inoculated at 1:10 dilution on Muller • Hinton Agar plates • Test organisms: Klebsiella pneumoniae (K.p) ATCC BAA-1705, Klebsiella pneumoniae ATCC 700603, Escherichia coli (E.c) Ecoli233 • Carbapenem (e.g., Imipenem [IPM] 10 μg) and cephalosporin (e.g., Ceftazidime [CAZ] 30 μg) paper disks (7 mm) were placed on the inoculated agar plates • Compound-1 (60 μg) disk was placed at a distance of 7 & 10 mm from the carbapenem and cephalosporin disks. • The presence of expressed carbapenemases or ESBLs was measured as the expansion of Imipenem or Ceftazidime's inhibition zones due to synergy in the presence of Compound-1. Results:
(§3) The methodology remains the same as Methodology 1 except the following change • Compound-1 (60 μg) was added on the same disk in combination with a carbapenem (e.g., Imipenem 10 μg) or cephalosporin (e.g., Ceftazidime 30 μg) and placed on the inoculated agar plate. • The presence of the expressed carbapenemases or ESBLs was measured as an increase in Imipenem or Ceftazidime's zone diameter in combination with Compound-1 compared to antibiotic alone. Results

For assay [3], the system named is K. pneumoniae ATCC BAA-1705 (KPC2). The assay is described as above. The format is cell-based, Klebsiella pneumoniae. Conditions: CAZ 30 μg or IPM 10 μg disk alone.
Excerpt: as §1
as §2, with “Compound-1.” for “Compound-1. Results:”
as §3

The subject of assay [4] is E. coli ATCC 25922 (β-lac-ve). Described as above. Format: cell-based, Escherichia coli. The settings on record: CAZ 30 μg or IPM 10 μg disk alone; ATCC 25922.
In assay [5] the test system is E. cloacae 01 MGH 049 (KPC2, AmpC). Put plainly: Synergistic broth micro-dilution MIC. Format: cell-based. The settings on record: Enterobacter cloacae, no BLI, read-out: MIC of imipenem, No BLI.
Assay [6] has as its system K. pneumoniae UMM3 (KPC2). Put plainly: Synergistic broth micro-dilution MIC. Conditions: Klebsiella pneumoniae, no BLI, read-out: MIC of imipenem, No BLI. Format: cell-based, Klebsiella pneumoniae.
The subject of assay [7] is E. coli Ecoli233 (KPC3). Kind of assay: Synergistic broth micro-dilution MIC. The format is cell-based, Escherichia coli. Conditions: Escherichia coli, no BLI, read-out: MIC of imipenem, No BLI.
The subject of assay [8] is KPC2 K. pneumoniae ATCC BAA 1705. Put plainly: Mice systemic infection model. Format: in vivo. Conditions: Klebsiella pneumoniae, BAA1705; mice, sub-cutaneous; with cilastatin; read-out: ED50 of Imipenem alone. The protocol:
Female Swiss Albino mice, weighing 18-22 g were used for all studies. For each dose group, 5 or 6 mice were included. Study protocols were reviewed and approved by Institutional Animal Ethical Committee, Orchid Research Laboratories Limited. Mice were housed in individually ventilated cages provided with food and water ad libitum, throughout the study period. From overnight culture in Brain-Heart Infusion agar medium, challenge inoculum with required bacterial density was prepared in normal saline containing Hog gastric mucin. In studies involved with doripenem, washed bacterial cells was used. Each mouse was infected […] inoculum by intra-peritoneal injection.
Infected mice were dosed sub-cutaneously, with drug preparations at three different time points post-infection.
Imipenem with BLI combinations: Increasing concentrations of Imipenem as single agent or in combination with fixed concentration of BLIs were used to dose infected mice, sub-cutaneously. In this experiment Imipenem was always administered along with cilastatin. Doripenem with BLI combinations: Increasing concentrations of doripenem as single agent or in combination with fixed concentration of BLIs were used to dose infected mice, sub-cutaneously.
Survival of the treated mice were monitored twice a day, up to 7 days post-infection. Efficacy dose 50 (ED50) was calculated by Reed and Muench method (Reed, L. J.; Muench, H. “A simple method of estimating fifty percent endpoints”. The American Journal of Hygiene, 1938, 27: 493-497.).

The test system is the same in assay [9]. Put plainly: Neutropenic mice thigh infection model (human adapted model). Format: in vivo. Conditions: Imipenem 140 mg/kg fractionated over 5.5 h; end point 6 h. How it is done: Female Swiss Albino mice weighing 24-30 g were used for all studies. Study protocols were reviewed and approved by Institutional Animal Ethical Committee, Orchid Research Laboratories Limited. Mice were rendered neutropenic by intra-peritoneal cyclophosphamide injections. Log phase culture in brain heart infusion broth was injected in to mice thighs. Imipenem or Doripenen alone or in combination were administered sub-cutaneously in decreasing fractionated doses every 15 minutes over the period of 5.5 h (Flückiger, U. et al. “Integration of pharmacokinetics and pharmacodynamics of Imipenem in a human-adapted mouse model’. Antimicrobial Agents and Chemother, 1991, 35(9): 1905-1910). The Compound-1 or tazobactam was administered sub-cutaneously as bolus dose at the start of dosing. Efficacy end point was 6 h in Imipenem studies and 8 h in Doripenen studies.
Three experiments were carried out where Doripenen alone or in combination with compound-1 or tazobactam (two experiments) were evaluated. Doripenem 70 mg/kg was administered in fractionated doses over the period of 5.5 h (Fluckiger, U. et al. “Integration of pharmacokinetics and pharmacodynamics of Imipenem in a human-adapted mouse model’. Antimicrobial Agents and Chemother., 1991, 35(9): 1905-1910). Compound-1 or tazobactam was administered as bolus dose at initiation of therapy. Efficacy end point was 8 h after initiation of therapy.

For assay [10], the system named is E. coli Ecoli233 (KPC3). Kind of assay: Disk zone of inhibition, antibiotic + Compound-1 on same disk (Methodology 2). Format: cell-based, Escherichia coli. Conditions: CAZ 30 μg or IPM 10 μg disk alone.
Excerpt: as §1
as §2, with “Compound-1.” for “Compound-1. Results:”
as §3

The subject of assay [11] is K. pneumoniae NCTC 13438 (KPC3). Kind of assay: Synergistic broth micro-dilution MIC. Conditions: Klebsiella pneumoniae, NCTC13438, no BLI, read-out: MIC of imipenem, No BLI. Format: cell-based, Klebsiella pneumoniae.
Assay [12] has as its system KPC-3 expressing E. coli (J53 R6206). Put plainly: Synergistic broth micro-dilution MIC (checkerboard). The settings on record: no BLI. Format: cell-based, Escherichia coli.

A word on the MIC: it is the lowest concentration found to suppress growth. As usually defined, the ED50 is the dose that gives a 50% effect, or the effect in half of the subjects. Regarding `C[C@@H](O)[C@H]1C(=O)N2C(C(=O)O)=C(SCCN=CN)C[C@H]12` [Imipenem], the MIC in [1] is 32 to 64 µg/mL; in assay [5], 8 µg/mL; in assay [6], 8 µg/mL; in the assay with E. coli Ecoli233 (KPC3) [7] it was 16 µg/mL; in assay [11] it was 128 µg/mL. In addition, the “Zone of inhibition (ZOI), antibiotic alone” value in [2] turned out to be 25 mm; in [3], 14.5 mm; in assay [4], 26.5 mm; with E. coli Ecoli233 (KPC3) [10] it was 14 mm. In addition, the ED50 in [8] was 8.9 mg/kg. Also, in assay [9], the “Bacterial load, Imipenem alone” value turned out to be 6.8E+06 CFU/thigh. In addition, in assay [12], the “MIC of antibiotic alone (no BLI)” value was in the range of 2 to 4 µg/mL.
